± gives the uncertainty stated by the source.
Experiment: xn = mol fraction of the nth substance listed

NCCCN + CC(O)CO
viscosity [mPa·s], 101.3 kPa
Conditions	293.15 K	298.15 K	303.15 K	308.15 K	313.15 K	318.15 K
x2 = 0.0488	2.44 ± 0.03	2.19 ± 0.03	1.92 ± 0.03	1.68 ± 0.03	1.48 ± 0.03	1.32 ± 0.03
x2 = 0.0977	3.15 ± 0.04	2.8 ± 0.03	2.43 ± 0.03	2.08 ± 0.03	1.82 ± 0.03	1.58 ± 0.03
x2 = 0.1467	3.95 ± 0.04	3.45 ± 0.04	2.97 ± 0.04	2.51 ± 0.03	2.17 ± 0.03	1.91 ± 0.03
x2 = 0.1958	5.23 ± 0.05	4.5 ± 0.04	3.79 ± 0.04	3.17 ± 0.04	2.7 ± 0.03	2.34 ± 0.03
x2 = 0.2451	6.85 ± 0.05	5.81 ± 0.05	4.87 ± 0.04	4 ± 0.04	3.36 ± 0.04	2.88 ± 0.03
x2 = 0.2945	9.15 ± 0.06	7.62 ± 0.06	6.28 ± 0.05	5.09 ± 0.04	4.2 ± 0.04	–
x2 = 0.3441	12.3 ± 0.1	10 ± 0.1	8.12 ± 0.06	6.48 ± 0.05	5.29 ± 0.04	–
x2 = 0.3937	17 ± 0.1	13.6 ± 0.1	10.8 ± 0.1	8.39 ± 0.06	6.74 ± 0.05	–
x2 = 0.4435	22.8 ± 0.1	17.9 ± 0.1	14 ± 0.1	10.7 ± 0.1	8.55 ± 0.06	–
x2 = 0.4934	30 ± 0.2	23.2 ± 0.1	17.9 ± 0.1	13.6 ± 0.1	10.6 ± 0.1	–
x2 = 0.5435	38.5 ± 0.2	29.3 ± 0.2	22.2 ± 0.1	16.7 ± 0.1	12.9 ± 0.1	–
x2 = 0.5937	47.4 ± 0.3	35.8 ± 0.2	27 ± 0.2	20.1 ± 0.1	15.4 ± 0.1	–
x2 = 0.644	55.5 ± 0.2	41.8 ± 0.2	31.4 ± 0.2	23.2 ± 0.1	17.6 ± 0.1	–
x2 = 0.6945	62.5 ± 0.3	46.9 ± 0.3	35.1 ± 0.2	25.9 ± 0.2	19.7 ± 0.1	–
x2 = 0.745	67.1 ± 0.4	50.3 ± 0.2	37.8 ± 0.2	27.8 ± 0.2	21.2 ± 0.1	–
x2 = 0.7958	69 ± 0.4	51.8 ± 0.2	38.8 ± 0.2	28.8 ± 0.2	21.9 ± 0.1	–
x2 = 0.8466	68.9 ± 0.4	51.9 ± 0.2	39 ± 0.2	28.9 ± 0.2	22 ± 0.1	–
x2 = 0.8976	66.1 ± 0.4	50 ± 0.3	37.7 ± 0.2	28.1 ± 0.2	21.5 ± 0.1	–
x2 = 0.9487	62.3 ± 0.3	47.1 ± 0.2	35.7 ± 0.2	26.8 ± 0.1	20.5 ± 0.1	–

COCCOCCOC + CCCO
viscosity [mPa·s]
Conditions	298.15 K	308.15 K	318.15 K
101 kPa, x1 = 0.0121	1.856 ± 0.056	1.451 ± 0.045	–
101 kPa, x1 = 0.0768	1.559 ± 0.048	1.243 ± 0.039	–
101 kPa, x1 = 0.1011	1.451 ± 0.019	1.173 ± 0.015	0.956 ± 0.013
101 kPa, x1 = 0.1288	1.399 ± 0.043	1.144 ± 0.036	–
101 kPa, x1 = 0.1895	1.272 ± 0.04	1.052 ± 0.034	–
101 kPa, x1 = 0.1997	1.243 ± 0.016	1.021 ± 0.013	0.847 ± 0.011
101 kPa, x1 = 0.2359	1.213 ± 0.038	1.004 ± 0.032	–
101 kPa, x1 = 0.2801	1.183 ± 0.037	0.971 ± 0.031	–
101 kPa, x1 = 0.3029	1.115 ± 0.014	0.927 ± 0.012	0.779 ± 0.011
101 kPa, x1 = 0.3162	1.133 ± 0.036	0.951 ± 0.031	–
101 kPa, x1 = 0.3322	1.12 ± 0.036	0.939 ± 0.031	–
101 kPa, x1 = 0.3923	1.08 ± 0.034	0.918 ± 0.03	–
101 kPa, x1 = 0.4025	1.046 ± 0.014	0.878 ± 0.012	0.743 ± 0.01
101 kPa, x1 = 0.4477	1.051 ± 0.034	0.899 ± 0.029	–
101 kPa, x1 = 0.4978	1.032 ± 0.033	0.886 ± 0.029	–
101 kPa, x1 = 0.5004	1.01 ± 0.013	0.852 ± 0.011	0.729 ± 0.01
101 kPa, x1 = 0.5784	1.011 ± 0.033	0.871 ± 0.029	–
101 kPa, x1 = 0.5992	0.988 ± 0.013	0.838 ± 0.011	0.717 ± 0.01
101 kPa, x1 = 0.6325	1.003 ± 0.032	0.854 ± 0.028	–
101 kPa, x1 = 0.6934	0.975 ± 0.013	0.828 ± 0.011	0.709 ± 0.01
101 kPa, x1 = 0.7544	0.991 ± 0.032	0.86 ± 0.028	–
101 kPa, x1 = 0.8004	0.971 ± 0.012	0.825 ± 0.011	0.709 ± 0.01
101 kPa, x1 = 0.813	0.991 ± 0.032	0.862 ± 0.028	–
101 kPa, x1 = 0.8974	0.981 ± 0.013	0.836 ± 0.011	–
101 kPa, x1 = 0.9026	0.993 ± 0.032	0.863 ± 0.028	–
101 kPa, x1 = 0.9638	0.996 ± 0.032	0.867 ± 0.029	–
101 kPa, x2 = 0.0194	0.996 ± 0.032	0.867 ± 0.029	–
101.33 kPa, x1 = 0.0064	1.913 ± 0.015	–	–
101.33 kPa, x1 = 0.0122	1.881 ± 0.015	–	–
101.33 kPa, x1 = 0.0238	1.816 ± 0.014	–	–
101.33 kPa, x1 = 0.0358	1.756 ± 0.014	–	–
101.33 kPa, x1 = 0.0546	1.671 ± 0.013	–	–
101.33 kPa, x1 = 0.0803	1.567 ± 0.013	–	–
101.33 kPa, x1 = 0.1176	1.443 ± 0.012	–	–
101.33 kPa, x1 = 0.1632	1.333 ± 0.011	–	–
101.33 kPa, x1 = 0.2064	1.251 ± 0.01	–	–
101.33 kPa, x1 = 0.2619	1.177 ± 0.01	–	–
101.33 kPa, x1 = 0.2976	1.14 ± 0.009	–	–
101.33 kPa, x1 = 0.3254	1.119 ± 0.009	–	–
101.33 kPa, x1 = 0.3716	1.086 ± 0.009	–	–
101.33 kPa, x1 = 0.4168	1.065 ± 0.009	–	–
101.33 kPa, x1 = 0.4652	1.038 ± 0.009	–	–
101.33 kPa, x1 = 0.5109	1.024 ± 0.009	–	–
101.33 kPa, x1 = 0.5509	1.009 ± 0.008	–	–
101.33 kPa, x1 = 0.5982	0.994 ± 0.008	–	–
101.33 kPa, x1 = 0.6569	0.984 ± 0.008	–	–
101.33 kPa, x1 = 0.711	0.976 ± 0.008	–	–
101.33 kPa, x1 = 0.7757	0.975 ± 0.008	–	–
101.33 kPa, x1 = 0.819	0.976 ± 0.008	–	–
101.33 kPa, x1 = 0.8649	0.977 ± 0.008	–	–
101.33 kPa, x1 = 0.9094	0.984 ± 0.008	–	–
101.33 kPa, x1 = 0.9425	0.989 ± 0.008	–	–
101.33 kPa, x1 = 0.9722	0.988 ± 0.008	–	–

From the CheMixHub viscosity set
